Reference: ChEMBL document CHEMBL1144114, “A new cacospongionolide derivative from the sponge Fasciospongia cavernosa” (J Nat Prod, 1999)
≈ marks a conversion by molar mass, not a printed value.

What was measured:
Artemia salina = assay: Toxicity against Artemia salina; format: organism-based; conditions: in vivo
Gambusia affinis = assay: Toxicity against Gambusia affinis; format: organism-based; conditions: in vivo
Bacillus subtilis = assay: Antibacterial activity against Bacillus subtilis DSM 347; format: functional
Micrococcus luteus = assay: Antibacterial activity against Micrococcus luteus DSM 348; format: functional

C[C@H]1CC=C2[C@H](CCCC2(C)C)[C@@]1(C)CCC1=CC[C@H](C2=CC(=O)O[C@H]2O)OC1 [CACOSPONGIONOLIDE F]
LC50 (Artemia salina): 0.17 ppm
LC50 (Gambusia affinis): 0.7 ppm
MIC (Bacillus subtilis): 0.78 µg/mL (≈ 1.95 µM)
MIC (Micrococcus luteus): 0.78 µg/mL (≈ 1.95 µM)
